Results: patent US11384106B2, “Metal tricarbonyl complexes comprising substituted iminodiactic acid ligands and uses as radioisotope tracers” (priority 2015, dated 2022)

Legend:
[1] = relative to ^131I-OIH; cited from earlier work
[2] = Stability of ^18F radiotracer solution (pH 7) by HPLC; assay type: physicochemical; conditions: incubated for 23 hours
Description: Re(CO)3(^18FFEDA) (3) was prepared by reacting the corresponding tosyl precursor, rheniumtricarbonyl-N-ethyltosylate iminodiacetate, Re(CO)3(TsDA), with [18F]fluoride ion (^18F) in anhydrous acetonitrile in the presence of K2CO3 and Kryptofix 222 at 110° C. for 20 min in a chemical processing control unit (CPCU). The resulting radiolabeled product was purified by semi-preparative high performance liquid chromatography (HPLC) using a Waters XTerra Prep RP 18 column (5 jam, 19×100 mm) and eluted with a mobile phase of 0.05 M triethylammonium phosphate (TEAP) buffer (pH=7)/ethanol (80:20 v/v) at a flow rate of 6 mL/min. The solution of the ^18F radiotracer (pH 7) was analyzed by HPLC for stability for up to 23 h.

[3] = Evaluation in rats using ^131I-OIH as internal control (blood clearance, renal excretion, urine metabolites); assay type: in vivo; conditions: for % injected dose in the urine, as % of that of ^131I-OIH: relative to ^131I-OIH internal control
Description: (§1) ^99mTc(CO)^3(FEDA) was evaluated in rats using ^131I-OIH as an internal control; urine was analyzed for metabolites. Plasma protein binding (PPB) and erythrocyte uptake (RCB) were determined from the 10 min blood samples. The Re(CO)3 analog was prepared for structural characterization.

plasma protein = test: Plasma protein binding (PPB) from 10 min blood samples; assay type: in vitro ADME; conditions: rats
Description: as §1

[4] = Stability of ^99mTc tracer at physiological pH / physiological conditions
erythrocyte = test: Erythrocyte uptake (RCB) from 10 min blood samples; assay type: in vitro ADME; conditions: rats
Description: as §1

O=C([O-])CN=C([O-])CN=C([O-])CN=C([O-])C[S-].[O-2].[Tc+4] [^99mTc-MAG3, ^99mTc-mercaptoacetyltriglycine]
Clearance compared to ^131I-OIH [1]: 50-65%

Re(CO)3(N-(2-^18fluoroethyl)iminodiacetate) [Re(CO)3(^18FFEDA)]
Stability by HPLC analysis after incubation [2]: only intact

^99mTc(CO)3(N-(2-fluoroethyl)iminodiacetate) [^99mTc(CO)3(FEDA)]
Clearance compared with ^131I-OIH ([3]; compared with gold standard ^131I-OIH): comparable to the gold standard | Renal excretion ([3]; rat studies, compared with ^99mTc-MAG3): rapid renal excretion | Blood clearance ([3]; rats): rapid blood clearance | Specificity for renal excretion ([3]; rats): high specificity for renal excretion | Uptake in other organs ([3]; rats): lack of significant uptake in other organs | % injected dose in the urine, as % of that of ^131I-OIH ([3]; rats, 10 min after injection): 100% | % injected dose in the urine, as % of that of ^131I-OIH ([3]; rats, 60 min after injection): 99% | Metabolites in urine (form in which the tracer is excreted) ([3]; rats, urine analyzed for metabolites): secreted intact in the urine | Plasma protein binding (PPB) (plasma protein): 61% | Stability (time stable) ([4]; physiological conditions): at least 1 d | Stability (time stable) ([4]; physiological pH): ≥ 24 h | Erythrocyte uptake (RCB) (erythrocyte): 20%
